Here are results for three compounds from PMC12542666, “Mechanistic insights into the dimethylsulfoniopropionate synthesis enzyme BurB” (Applied and Environmental Microbiology, 2025).

Where two headings read alike, the source gives them in different places.

One experiment has as its system BurB. The class given is biochemical, Burkholderia thailandensis.
In experiment [1] the target is BurB from Burkholderia thailandensis (Burkholderia thailandensis). Kind of experiment: SEC. A general note: Size exclusion chromatography separates by hydrodynamic size, large species first.

As a reminder, the Km is the concentration of substrate that gives half-maximal velocity. As to `CSCC[C@H](N)C(=O)O` [Met], in the experiment with BurB (pH 9.0, 40 °C), the Km amounted to 16.6 mM. As for `C[S+](CC[C@H](N)C(=O)O)C[C@H]1O[C@@H](n2cnc3c(N)ncnc32)[C@H](O)[C@@H]1O` (stereo partly drawn) [SAM], the Km with BurB worked out at 1.8 mM. The stoichiometry N is a count of units in the complex or per binding partner. Consider “BurB from Burkholderia thailandensis (enzyme)”, for which the stoichiometry N in experiment [1] was 4.
